Data taken from US20250352500A1, “USE OF PHENOLIC ACIDS DERIVATIVES IN TREATING ISCHEMIC STROKE” (LANZHOU UNIVERSITY, priority 2022, published 2025).

Assays:
Assay type in all cases: in vivo, male C57/BL mice
MCAO model mice = assay: Body weight change after ischemia-reperfusion
Procedure: (§1) Grouping and administration method: Male C57/BL mice weighing 23±1 g were randomly divided into sham operation group (SHAM), model group (MCAO), compound 2 group (100 mg/kg), and compound 1 group (50 mg/kg), with 10 mice in each group. Mice in the SHAM group underwent vascular isolation, but no […] was administered, and no treatment was given before or after surgery. The model group mice were constructed with MCAO models and were not treated before and after surgery. The treatment group was treated with compound 2 or compound 1 on the basis of the model group. Mice with a neurological score of 0 after reperfusion and those that died before 72 hours post-surgery were excluded. The administration time for animal behavior tests was seven times at 0 h, 1 day, 2 days, 3 days, 4 days, 5 days, and 6 days after reperfusion, while the administration time for other experiments was three times at 0 h, 1 day, and 2 days after reperfusion. The drug was administered through the tail vein, and the sham operation group and model group were given equal amounts of saline.
At the same time, the weight change and survival rate of mice after ischemia-reperfusion were analyzed.

iba1 = iba1 immunofluorescence in brain tissue (microglia); details: 72 h ischemia-reperfusion, three days of administration; compound 2 100 mg/kg, compound 1 50 mg/kg; MCAO group 303±23; mean±SEM, n=3
Procedure: as §1, with “The administration time for animal behavior tests was seven times at 0 h, 1 day, 2 days, 3 days, 4 days, 5 days, and 6 days after reperfusion, while the administration time for other experiments was three times at 0 h, 1 day, and 2 days after reperfusion. The drug was administered through the tail vein, and the sham operation group and model group were given equal amounts of saline.” left out
Microglia are resident phagocytic cells in the nervous system and are the primary defense system for stress and injury in central nervous cells. […] To investigate whether the compound has an effect on the activation and proliferation of microglia in the ischemia-reperfusion model, this study used immunofluorescence experiments to detect the fluorescence expression of iba1 in the brain tissues of the sham operation group (SHAM), model group (MCAO), compound 2 group, and compound 1 group. Then, the expression level of iba1 in microglia in brain tissue was detected by Western blot. […]

[1] = system: TNF-α, IL-1β, IL-6, iNOS, and COX2; assay: Immunofluorescence of pro-inflammatory factors in brain tissue; details: 72 h, P<0.001; for Number of pro-inflammatory factor-positive cells compared with MCAO group: three days of administration, compound 2 100 mg/kg, compound 1 50 mg/kg
Procedure: as §1
(§2) To investigate the effect of compounds on the expression of inflammatory factors after ischemia-reperfusion, this study used immunofluorescence experiments to observe the expression of TNF-α, IL-1β, IL-6, iNOS, and COX2 proteins in brain tissue. RT-qPCR experiments were used to detect the mRNA gene expression of pro-inflammatory factors TNF-α, IL-1β, IL-6, iNOS, and COX2 in the sham operation group, model group, compound 2 group, and compound 1 group. The concentrations of TNF-α, IL-1β, and IL-6 in brain homogenate were detected by enzyme-linked immunosorbent assay (ELISA), and the expression level of TNF-α protein in brain tissue was detected by Western blot.
After 72 hours of ischemia-reperfusion, the expression changes of inflammatory factors such as TNF-α, IL-1β, IL-6, iNOS, and COX2 in brain regions were analyzed by immunofluorescence staining. […]

TNF-α [2] = assay: RT-qPCR of TNF-α mRNA in brain tissue; details: 72 h, three days of administration, compound 2 100 mg/kg, compound 1 50 mg/kg, P<0.05
Procedure: as §1, with “The administration time for animal behavior tests was seven times at 0 h, 1 day, 2 days, 3 days, 4 days, 5 days, and 6 days after reperfusion, while the administration time for other experiments was three times at 0 h, 1 day, and 2 days after reperfusion. The drug was administered through the tail vein, and the sham operation group and model group were given equal amounts of saline.” left out
as §2, with “RT-qPCR experiments were used to detect the mRNA gene expression of pro-inflammatory factors TNF-α, IL-1β, IL-6, iNOS, and COX2 in the sham operation group, model group, compound 2 group, and compound 1 group.” left out
After 72 hours of ischemia-reperfusion, the mRNA expression levels of TNF-α, IL-1β, IL-6, iNOS, and COX2 in brain tissue were detected and analyzed by RT-qPCR. […]

TNF-α [3] = assay: TNF-α protein Western blot in brain tissue; details: 72 h; for TNF-α protein expression reduced compared with MCAO group: three days of administration, compound 2 100 mg/kg, compound 1 50 mg/kg, P<0.001
Procedure: as §1
as §2, with “RT-qPCR experiments were used to detect the mRNA gene expression of pro-inflammatory factors TNF-α, IL-1β, IL-6, iNOS, and COX2 in the sham operation group, model group, compound 2 group, and compound 1 group.” left out
(§3) After 72 hours of ischemia-reperfusion, the expression level of TNF-α protein in brain tissue was detected by Western blot. […] In this experiment, β-actin was used as an internal reference protein. n=3, data are presented as mean±SEM, analyzed with one-way ANOVA, and subjected to Tukey's HSD test. *P<0.05, **P<0.01, ***P<0.001. ^#P<0.05, ^##P<0.01, ^###P<0.001. * indicates a comparison with the SHAM group, ^# indicates a comparison with the compound 2 group.

HIF-1α = HIF-1α protein Western blot in brain tissue; details: 72 h; for HIF-1α protein expression reduced compared with MCAO model group: three days of administration, compound 2 100 mg/kg, compound 1 50 mg/kg
Procedure: as §1
HIF-1α is a sensitive regulator of oxygen homeostasis, rapidly inducing its expression after hypoxia-ischemia. It plays a wide range of roles in the pathophysiology of stroke, including neuronal survival, neuroinflammation, angiogenesis, glucose metabolism, and blood-brain barrier regulation. It can not only produce specific sensations in the case of hypoxia, but also facilitate the maintenance of oxygen homeostasis in the body. […]
as §3, with “of HIF-1α” for “of TNF-α”, “as the” for “as an”, “are” for “are presented as”, “analyzed using” for “analyzed with”, “one-way ANOVA” for “one-way ANOVA,”, “and” for “and subjected to”

[4] = compound 2 100 mg/kg vs compound 1 50 mg/kg

Structure (SMILES) | Body weight compared with the compound 2 group (MCAO model mice; 7th day after reperfusion, compound 1 50 mg/kg vs compound 2 100 mg/kg, P<0.05) | Number of iba1-positive cells (iba1) | Number of pro-inflammatory factor-positive cells compared with MCAO group [1] | TNF-α mRNA expression compared with MCAO group (TNF-α [2]) | TNF-α protein expression reduced compared with MCAO group (TNF-α [3]) [%] | HIF-1α protein expression reduced compared with MCAO model group (HIF-1α) [%] | Body weight compared with MCAO group (MCAO model mice; 7th day of reperfusion, 100 mg/kg tail vein) | Density of pro-inflammatory factor-positive cells compared with the compound 1 group [1, 4] | TNF-α protein expression decreased compared with the compound 1 group (TNF-α [3]; compound 2 100 mg/kg vs compound 1 50 mg/kg, P<0.05) [%] | HIF-1α protein expression level compared with the compound 1 group (HIF-1α; [4])
O=C(O)c1cc(O)ccc1O [compound 1] | significantly decreased | 200±12 /mm^2 | significantly decreased | significantly reduced | 20±10 | 46±10 |  |  |  | 
O=C(O)c1cc(OP(=O)(O)O)ccc1OP(=O)(O)O [compound 2] |  | 148±40 /mm^2 | significantly decreased | significantly reduced | 40±12 | 53±10 | inhibited the decrease in body weight | significantly reduced | 31±20 | significantly reduced
